Experimental data reported in patent US9179694B2, “Method and composition for enhancing milk production and milk component concentrations” (PURINA ANIMAL NUTRITION LLC, priority 2003, dated 2015).
Marks after values point to notes of the source that are not given here.

Test: Lactose content of produced milk in sorbitol feeding trials
Format: in vivo, Holstein cows
Details: for Lactose in Produced Milk: Pre-Partum Trial #1 (75/0/0 g/day in wk −3..−1/+1..+4/+5..+8)
Experimental: To determine the weight percent lactose, wet basis, in a liquid sample, the weight of the liquid sample is first determined. The actual weight of lactose in the liquid sample may then be determined using analysis kit number 176-303, that is available from Boehringer-Mannheim of Indianapolis, Ind. in accordance with the procedural instructions included with analysis kit number 176-303. The weight percent lactose, wet basis, in the liquid sample is then calculated by dividing the actual weight of lactose in the liquid sample by the actual weight of the liquid sample. Each cow of each of the six different trials (Control Trial #1, Control Trial #2, Pre-Partum Trial #1, Pre-Partum Trial #2, Pre/Post Trial #1, and Pre/Post Trial #2) was milked three times daily and the weight of produced milk by each cow was recorded at each milking. The milk from each cow was sampled once per week (⅓ of the sample volume from each of the three milkings occurring on the weekly milk sampling day) and was analyzed for true protein, total fat, lactose, and total solids, as detailed in the property determination and characterization techniques presented above. Additionally, samples of blood were periodically obtained from each cow during the four trials (Control Trial 2, Pre-Partum Trial #2, Pre/Post Trial #1, and Pre/Post Trial #2) encompassed in Example Two and were analyzed for non-esterified fatty acid (NEFA) content as detailed in the property determination and characterization techniques presented above. No NEFA analysis was conducted on the cows employed in Control Trial #1 or Pre-Partum Trial #1 that are the subject of Example One. Example One includes Control Trial #1 and Pre-Partum Trial #1. Both primiparious cows and multiparious cows were included in Control Trial #1 and Pre-Partum Trial #1. Five primiparious cows and fifteen multiparious cows were included in Control Trial #1; likewise, five primiparious cows and fifteen multiparious cows were included in Pre-Partum Trial #1. All cows included in Control Trial #1 and Pre-Partum Trial #1 were Holsteins. Example Two includes Control Trial #2, Pre-Partum Trial #2, Pre/Post Trial #1, and Pre/Post Trial #2. Only multiparious, Holstein cows were included in Control Trial #2, Pre-Partum Trial #1, Pre/Post Trial #1, and Pre/Post Trial #2. Eighteen multiparious cows were included in both Control Trial #2 and Pre-Partum Trial #2, while sixteen multiparious cows were included in Pre/Post Trial #1 and seventeen multiparious cows were included in Pre/Post Trial #2.

## OC[C@@H](O)[C@@H](O)[C@H](O)[C@@H](O)CO [sorbitol]
Multiparious cows, weeks +1 through +8
  Lactose in Produced Milk: 4.77 wt %
Primiparious cows, weeks +1 through +8
  Lactose in Produced Milk: 4.98 wt %
Pre-Partum Trial #1 (75 g/day wk −3..−1 only) versus Control Trial #1, primiparious cows, weeks +1 through +8
  increase in lactose concentration in the produced milk: 5.1%
Pre-Partum Trial #2 (75/0/100 g/day in wk −3..−1/+1..+4/+5..+8), multiparious cows, week +1
  Lactose Content of Produced Milk: 4.42 weight %
Pre-Partum Trial #2 (75/0/100 g/day in wk −3..−1/+1..+4/+5..+8), multiparious cows, week +2
  Lactose Content of Produced Milk: 4.69^a weight %
Pre-Partum Trial #2 (75/0/100 g/day in wk −3..−1/+1..+4/+5..+8), multiparious cows, week +3
  Lactose Content of Produced Milk: 4.74^a weight %
Pre-Partum Trial #2 (75/0/100 g/day in wk −3..−1/+1..+4/+5..+8), multiparious cows, week +4
  Lactose Content of Produced Milk: 4.75^a weight %
Pre-Partum Trial #2 (75/0/100 g/day in wk −3..−1/+1..+4/+5..+8), multiparious cows, week +5
  Lactose Content of Produced Milk: 4.74^a weight %
Pre-Partum Trial #2 (75/0/100 g/day in wk −3..−1/+1..+4/+5..+8), multiparious cows, week +6
  Lactose Content of Produced Milk: 4.75^a weight %
Pre-Partum Trial #2 (75/0/100 g/day in wk −3..−1/+1..+4/+5..+8), multiparious cows, week +7
  Lactose Content of Produced Milk: 4.77^a weight %
Pre-Partum Trial #2 (75/0/100 g/day in wk −3..−1/+1..+4/+5..+8), multiparious cows, week +8
  Lactose Content of Produced Milk: 4.76^a weight %
Pre-Partum Trial #2 (75/0/100 g/day in wk −3..−1/+1..+4/+5..+8), multiparious cows, weeks +1 through +4
  Lactose Content of Produced Milk: 4.65 weight %
Pre-Partum Trial #2 (75/0/100 g/day in wk −3..−1/+1..+4/+5..+8), multiparious cows, weeks +5 through +8
  Lactose Content of Produced Milk: 4.76^a weight %
Pre/Post Trial #1 (150/125/100 g/day in wk −3..−1/+1..+4/+5..+8), multiparious cows, week +1
  Lactose Content of Produced Milk: 4.55 weight %
Pre/Post Trial #1 (150/125/100 g/day in wk −3..−1/+1..+4/+5..+8), multiparious cows, week +1, two-trial comparison with Control Trial #2 (Table 25)
  Lactose Content of Produced Milk: 4.55 weight %
Pre/Post Trial #1 (150/125/100 g/day in wk −3..−1/+1..+4/+5..+8), multiparious cows, week +2
  Lactose Content of Produced Milk: 4.79^ab weight %
Pre/Post Trial #1 (150/125/100 g/day in wk −3..−1/+1..+4/+5..+8), multiparious cows, week +2, two-trial comparison with Control Trial #2 (Table 25)
  Lactose Content of Produced Milk: 4.79 weight %
Pre/Post Trial #1 (150/125/100 g/day in wk −3..−1/+1..+4/+5..+8), multiparious cows, week +3
  Lactose Content of Produced Milk: 4.87^ab weight %
Pre/Post Trial #1 (150/125/100 g/day in wk −3..−1/+1..+4/+5..+8), multiparious cows, week +3, two-trial comparison with Control Trial #2 (Table 25)
  Lactose Content of Produced Milk: 4.87 weight %
Pre/Post Trial #1 (150/125/100 g/day in wk −3..−1/+1..+4/+5..+8), multiparious cows, week +4
  Lactose Content of Produced Milk: 4.90^b weight %
Pre/Post Trial #1 (150/125/100 g/day in wk −3..−1/+1..+4/+5..+8), multiparious cows, week +4, two-trial comparison with Control Trial #2 (Table 25)
  Lactose Content of Produced Milk: 4.90 weight %
Pre/Post Trial #1 (150/125/100 g/day in wk −3..−1/+1..+4/+5..+8), multiparious cows, week +5
  Lactose Content of Produced Milk: 4.93^c weight %
Pre/Post Trial #1 (150/125/100 g/day in wk −3..−1/+1..+4/+5..+8), multiparious cows, week +5, two-trial comparison with Control Trial #2 (Table 25)
  Lactose Content of Produced Milk: 4.93 weight %
Pre/Post Trial #1 (150/125/100 g/day in wk −3..−1/+1..+4/+5..+8), multiparious cows, week +6
  Lactose Content of Produced Milk: 4.90^ab weight %
Pre/Post Trial #1 (150/125/100 g/day in wk −3..−1/+1..+4/+5..+8), multiparious cows, week +6, two-trial comparison with Control Trial #2 (Table 25)
  Lactose Content of Produced Milk: 4.90 weight %
Pre/Post Trial #1 (150/125/100 g/day in wk −3..−1/+1..+4/+5..+8), multiparious cows, week +7
  Lactose Content of Produced Milk: 4.90^ab weight %
Pre/Post Trial #1 (150/125/100 g/day in wk −3..−1/+1..+4/+5..+8), multiparious cows, week +7, two-trial comparison with Control Trial #2 (Table 25)
  Lactose Content of Produced Milk: 4.90 weight %
Pre/Post Trial #1 (150/125/100 g/day in wk −3..−1/+1..+4/+5..+8), multiparious cows, week +8
  Lactose Content of Produced Milk: 4.84^ab weight %
Pre/Post Trial #1 (150/125/100 g/day in wk −3..−1/+1..+4/+5..+8), multiparious cows, week +8, two-trial comparison with Control Trial #2 (Table 25)
  Lactose Content of Produced Milk: 4.84 weight %
Pre/Post Trial #1 (150/125/100 g/day in wk −3..−1/+1..+4/+5..+8), multiparious cows, weeks +1 through +4
  Lactose Content of Produced Milk: 4.78 weight %
Pre/Post Trial #1 (150/125/100 g/day in wk −3..−1/+1..+4/+5..+8), multiparious cows, weeks +1 through +4, two-trial comparison with Control Trial #2 (Table 25)
  Lactose Content of Produced Milk: 4.78 weight %
Pre/Post Trial #1 (150/125/100 g/day in wk −3..−1/+1..+4/+5..+8), multiparious cows, weeks +1 through +8
  Lactose Content of Produced Milk: 4.83^ab weight %
Pre/Post Trial #1 (150/125/100 g/day in wk −3..−1/+1..+4/+5..+8), multiparious cows, weeks +1 through +8, two-trial comparison with Control Trial #2 (Table 25)
  Lactose Content of Produced Milk: 4.83 weight %
Pre/Post Trial #1 (150/125/100 g/day in wk −3..−1/+1..+4/+5..+8), multiparious cows, weeks +5 through +8
  Lactose Content of Produced Milk: 4.89^ab weight %
Pre/Post Trial #1 (150/125/100 g/day in wk −3..−1/+1..+4/+5..+8), multiparious cows, weeks +5 through +8, two-trial comparison with Control Trial #2 (Table 25)
  Lactose Content of Produced Milk: 4.89 weight %
Pre/Post Trial #1 (150/125/100 g/day) versus Control Trial #2, multiparious cows, weeks +1 through +4 (Table 25)
  increase in lactose concentration in milk: more than 2.5%
Pre/Post Trial #1 (150/125/100 g/day) versus Control Trial #2, multiparious cows, weeks +1 through +8 (Table 25)
  increase in lactose concentration in milk: 1.9%
Pre/Post Trial #1 (150/125/100 g/day) versus Control Trial #2, multiparious cows, weeks +5 through +8 (Table 25)
  increase in lactose concentration in milk: more than 2.5%
Pre/Post Trial #2 (75/75/100 g/day in wk −3..−1/+1..+4/+5..+8), multiparious cows, week +1
  Lactose Content of Produced Milk: 4.47 weight %
Pre/Post Trial #2 (75/75/100 g/day in wk −3..−1/+1..+4/+5..+8), multiparious cows, week +2
  Lactose Content of Produced Milk: 4.84^b weight %
Pre/Post Trial #2 (75/75/100 g/day in wk −3..−1/+1..+4/+5..+8), multiparious cows, week +3
  Lactose Content of Produced Milk: 4.92^b weight %
Pre/Post Trial #2 (75/75/100 g/day in wk −3..−1/+1..+4/+5..+8), multiparious cows, week +4
  Lactose Content of Produced Milk: 4.90^b weight %
Pre/Post Trial #2 (75/75/100 g/day in wk −3..−1/+1..+4/+5..+8), multiparious cows, week +5
  Lactose Content of Produced Milk: 4.90^bc weight %
Pre/Post Trial #2 (75/75/100 g/day in wk −3..−1/+1..+4/+5..+8), multiparious cows, week +6
  Lactose Content of Produced Milk: 4.92^b weight %
Pre/Post Trial #2 (75/75/100 g/day in wk −3..−1/+1..+4/+5..+8), multiparious cows, week +7
  Lactose Content of Produced Milk: 4.96^b weight %
Pre/Post Trial #2 (75/75/100 g/day in wk −3..−1/+1..+4/+5..+8), multiparious cows, week +8
  Lactose Content of Produced Milk: 4.93^b weight %
Pre/Post Trial #2 (75/75/100 g/day in wk −3..−1/+1..+4/+5..+8), multiparious cows, weeks +1 through +4
  Lactose Content of Produced Milk: 4.78 weight %
Pre/Post Trial #2 (75/75/100 g/day in wk −3..−1/+1..+4/+5..+8), multiparious cows, weeks +1 through +8
  Lactose Content of Produced Milk: 4.85^b weight %
Pre/Post Trial #2 (75/75/100 g/day) versus Pre-Partum Trial #2 (75/0/100 g/day), multiparious cows, weeks +1 through +8
  greater lactose concentration in milk: 3.0%
Average of means of Pre-Partum Trial #2, Pre/Post Trial #1 and Pre/Post Trial #2 versus Control Trial #2, multiparious cows, weeks +1 through +4
  increase in lactose concentration in milk: 1.7%
Average of means of Pre-Partum Trial #2, Pre/Post Trial #1 and Pre/Post Trial #2 versus Control Trial #2, multiparious cows, weeks +1 through +8
  increase in lactose concentration in milk: 1.6%
